Our source for the ΔTm values is article PMC5190074, “BET inhibition as a new strategy for the treatment of gastric cancer” (Oncotarget, 2016).

What is called ΔTm is the shift of the melting midpoint relative to a reference.

What all share (experiment): biochemical
What all share (parameters): thermal shift assay (real-time PCR machine), melting temperature shift of recombinant bromodomains at 2 uM protein

One assay deals with T1, BRD7 (Homo sapiens, UniProt Q9NPI1).
T1 construct: bromodomain
The protocol:
(§1) The recombinant bromodomains at 2 μM were mixed with 10 μM inhibitors. The assays and data evaluation for melting temperatures were performed using a Real-Time PCR Mx3005p machine (Stratagene) and the protocols previously described. Experiments profiling the final compound (PNZ5) were performed in quadruplicates. […] Since its discovery in our own labs, similar inhibitors have also been disclosed by researchers at Boehringer Ingelheim [reference: patent, WO 2014/154760 [31]]. The inhibitor contains two possible acetyl-lysine mimetic moieties. In order to obtain molecular insights on the interaction of the developed inhibitor, the crystal structure of the first bromodomain of BRD4 in complex with PNZ5 was solved at 1.85 Å (Figure 2C and Supplementary Table 4, 5FBX.pdb). The inhibitor, coordinating residues and water molecules were well defined by the electron density. The dimethylisoxazole moiety mimicked the acetyl lysine side chain and formed two canonical hydrogen-bond interactions with Asn140 and water mediated hydrogen-bond with Tyr 97 (Figure 2C). The common network of waters within the binding site was also conserved in the BRD4(1)-PNZ5 complex. The compound was further stabilized by lipophilic interactions with residues forming the binding site Leu92, Leu94, Ile146. The [compound left out] substituent was well accommodated next to the WPF shelf, as well as the N1-methyl substituent that formed hydrophobic interactions with Trp81. The carbonyl on the isoindolinone established a water-mediated hydrogen bond with Lys91.

For a further assay, the target named is T2, BRD4(2) (Homo sapiens, UniProt O60885).
T2 construct: bromodomain 2
The protocol:
as §1

Another assay addresses T3, ATAD2B (Homo sapiens, UniProt Q9ULI0).
T3 construct: bromodomain
The protocol:
as §1

Another assay has as its target T4, SMARCA2 (Homo sapiens, UniProt P51531).
T4 construct: bromodomain
The protocol: as §1

The target in the next assay is T5, BRDT(2) (Homo sapiens, UniProt Q58F21).
T5 construct: bromodomain 2
The protocol:
as §1

A further assay addresses T6, PB1(5) (Homo sapiens, UniProt Q86U86).
T6 construct: gene PBRM1; bromodomain 5
The protocol: as §1

For the next assay, the target named is T7, BAZ1A (Homo sapiens, UniProt Q9NRL2).
T7 construct: bromodomain
The protocol: as §1

The next assay concerns the target T8, BRD1 (Homo sapiens, UniProt O95696).
T8 construct: bromodomain
The protocol:
as §1

In another assay the target is T9, BRPF3 (Homo sapiens, UniProt Q9ULD4).
T9 construct: bromodomain
The protocol: as §1

The target in the next assay is T10, PCAF (Homo sapiens, UniProt Q92831).
T10 construct: gene KAT2B; bromodomain
The protocol: as §1

The target in the next assay is T11, PB1(3) (Homo sapiens, UniProt Q86U86).
T11 construct: gene PBRM1; bromodomain 3
The protocol:
as §1

A further assay has as its target T12, BRPF1A (Homo sapiens, UniProt P55201).
T12 construct: gene BRPF1; isoform A bromodomain
The protocol:
as §1

In a further assay the target is T13, CREBBP (Homo sapiens, UniProt Q92793).
T13 construct: bromodomain
The protocol: as §1

The next assay deals with T14, TIF1-phd-bromo (Homo sapiens, UniProt O15164).
T14 construct: gene TRIM24; PHD-bromodomain
The protocol: as §1

For another assay, the target named is T15, WDR9(2) (Homo sapiens, UniProt Q9NSI6).
T15 construct: gene BRWD1; bromodomain 2
The protocol:
as §1

The target of the next assay is T16, BAZ2B (Homo sapiens, UniProt Q9UIF8).
T16 construct: bromodomain
The protocol: as §1

The next assay has as its target T17, SP140 (Homo sapiens, UniProt Q13342).
T17 construct: bromodomain
The protocol: as §1

The next assay deals with T18, TAF1L(1) (Homo sapiens, UniProt Q8IZX4).
T18 construct: bromodomain 1
The protocol: as §1

The target of a further assay is T19, PB1(1) (Homo sapiens, UniProt Q86U86).
T19 construct: gene PBRM1; bromodomain 1
The protocol:
as §1

In a further assay the target is T20, BRPF1B (Homo sapiens, UniProt P55201).
T20 construct: gene BRPF1; isoform B bromodomain
The protocol:
as §1

T18 sequence (Q8IZX4 whole entry): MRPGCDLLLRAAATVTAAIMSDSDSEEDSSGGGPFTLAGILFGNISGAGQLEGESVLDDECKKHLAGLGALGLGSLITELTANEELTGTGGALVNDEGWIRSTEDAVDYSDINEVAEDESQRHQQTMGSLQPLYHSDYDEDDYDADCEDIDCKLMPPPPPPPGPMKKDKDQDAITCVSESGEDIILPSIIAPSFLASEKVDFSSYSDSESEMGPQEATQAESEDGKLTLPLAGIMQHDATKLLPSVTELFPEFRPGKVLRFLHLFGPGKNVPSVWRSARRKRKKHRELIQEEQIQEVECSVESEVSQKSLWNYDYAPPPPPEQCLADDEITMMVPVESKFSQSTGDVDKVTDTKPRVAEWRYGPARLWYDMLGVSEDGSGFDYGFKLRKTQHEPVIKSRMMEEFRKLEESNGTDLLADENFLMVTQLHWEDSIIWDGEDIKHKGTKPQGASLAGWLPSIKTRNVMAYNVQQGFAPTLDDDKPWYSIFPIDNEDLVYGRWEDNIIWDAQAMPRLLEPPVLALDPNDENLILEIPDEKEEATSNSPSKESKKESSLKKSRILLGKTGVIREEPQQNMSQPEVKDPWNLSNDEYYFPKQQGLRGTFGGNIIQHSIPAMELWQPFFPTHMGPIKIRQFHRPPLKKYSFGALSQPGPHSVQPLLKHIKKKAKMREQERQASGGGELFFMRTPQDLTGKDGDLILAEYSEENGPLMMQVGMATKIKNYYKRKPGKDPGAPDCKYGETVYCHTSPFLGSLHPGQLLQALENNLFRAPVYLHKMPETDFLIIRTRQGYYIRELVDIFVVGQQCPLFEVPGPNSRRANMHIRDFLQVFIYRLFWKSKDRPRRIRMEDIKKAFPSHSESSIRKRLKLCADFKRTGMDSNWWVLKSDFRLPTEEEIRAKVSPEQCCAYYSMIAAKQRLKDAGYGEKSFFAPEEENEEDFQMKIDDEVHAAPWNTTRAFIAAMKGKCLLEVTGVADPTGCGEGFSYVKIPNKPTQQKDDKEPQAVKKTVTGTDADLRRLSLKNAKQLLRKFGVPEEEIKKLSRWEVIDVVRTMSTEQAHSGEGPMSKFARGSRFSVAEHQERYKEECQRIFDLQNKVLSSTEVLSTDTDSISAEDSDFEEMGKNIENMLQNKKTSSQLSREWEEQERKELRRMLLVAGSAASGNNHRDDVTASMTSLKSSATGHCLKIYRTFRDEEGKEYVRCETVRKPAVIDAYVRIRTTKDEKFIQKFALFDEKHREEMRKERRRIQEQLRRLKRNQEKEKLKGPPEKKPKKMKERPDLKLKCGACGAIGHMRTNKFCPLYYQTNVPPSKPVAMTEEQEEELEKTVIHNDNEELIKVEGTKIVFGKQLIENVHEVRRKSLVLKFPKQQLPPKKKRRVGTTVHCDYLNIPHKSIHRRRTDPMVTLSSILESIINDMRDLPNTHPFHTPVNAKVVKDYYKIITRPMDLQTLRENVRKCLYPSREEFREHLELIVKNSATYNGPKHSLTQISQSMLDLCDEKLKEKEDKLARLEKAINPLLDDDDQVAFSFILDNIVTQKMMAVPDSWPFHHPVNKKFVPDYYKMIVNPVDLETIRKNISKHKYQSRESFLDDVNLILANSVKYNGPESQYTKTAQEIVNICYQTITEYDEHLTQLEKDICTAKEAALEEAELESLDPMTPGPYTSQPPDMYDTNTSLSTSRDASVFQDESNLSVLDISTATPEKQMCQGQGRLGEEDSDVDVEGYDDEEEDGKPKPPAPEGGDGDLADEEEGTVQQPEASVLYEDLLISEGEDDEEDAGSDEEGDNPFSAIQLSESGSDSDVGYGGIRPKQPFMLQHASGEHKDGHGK
T19 sequence (Q86U86 whole entry): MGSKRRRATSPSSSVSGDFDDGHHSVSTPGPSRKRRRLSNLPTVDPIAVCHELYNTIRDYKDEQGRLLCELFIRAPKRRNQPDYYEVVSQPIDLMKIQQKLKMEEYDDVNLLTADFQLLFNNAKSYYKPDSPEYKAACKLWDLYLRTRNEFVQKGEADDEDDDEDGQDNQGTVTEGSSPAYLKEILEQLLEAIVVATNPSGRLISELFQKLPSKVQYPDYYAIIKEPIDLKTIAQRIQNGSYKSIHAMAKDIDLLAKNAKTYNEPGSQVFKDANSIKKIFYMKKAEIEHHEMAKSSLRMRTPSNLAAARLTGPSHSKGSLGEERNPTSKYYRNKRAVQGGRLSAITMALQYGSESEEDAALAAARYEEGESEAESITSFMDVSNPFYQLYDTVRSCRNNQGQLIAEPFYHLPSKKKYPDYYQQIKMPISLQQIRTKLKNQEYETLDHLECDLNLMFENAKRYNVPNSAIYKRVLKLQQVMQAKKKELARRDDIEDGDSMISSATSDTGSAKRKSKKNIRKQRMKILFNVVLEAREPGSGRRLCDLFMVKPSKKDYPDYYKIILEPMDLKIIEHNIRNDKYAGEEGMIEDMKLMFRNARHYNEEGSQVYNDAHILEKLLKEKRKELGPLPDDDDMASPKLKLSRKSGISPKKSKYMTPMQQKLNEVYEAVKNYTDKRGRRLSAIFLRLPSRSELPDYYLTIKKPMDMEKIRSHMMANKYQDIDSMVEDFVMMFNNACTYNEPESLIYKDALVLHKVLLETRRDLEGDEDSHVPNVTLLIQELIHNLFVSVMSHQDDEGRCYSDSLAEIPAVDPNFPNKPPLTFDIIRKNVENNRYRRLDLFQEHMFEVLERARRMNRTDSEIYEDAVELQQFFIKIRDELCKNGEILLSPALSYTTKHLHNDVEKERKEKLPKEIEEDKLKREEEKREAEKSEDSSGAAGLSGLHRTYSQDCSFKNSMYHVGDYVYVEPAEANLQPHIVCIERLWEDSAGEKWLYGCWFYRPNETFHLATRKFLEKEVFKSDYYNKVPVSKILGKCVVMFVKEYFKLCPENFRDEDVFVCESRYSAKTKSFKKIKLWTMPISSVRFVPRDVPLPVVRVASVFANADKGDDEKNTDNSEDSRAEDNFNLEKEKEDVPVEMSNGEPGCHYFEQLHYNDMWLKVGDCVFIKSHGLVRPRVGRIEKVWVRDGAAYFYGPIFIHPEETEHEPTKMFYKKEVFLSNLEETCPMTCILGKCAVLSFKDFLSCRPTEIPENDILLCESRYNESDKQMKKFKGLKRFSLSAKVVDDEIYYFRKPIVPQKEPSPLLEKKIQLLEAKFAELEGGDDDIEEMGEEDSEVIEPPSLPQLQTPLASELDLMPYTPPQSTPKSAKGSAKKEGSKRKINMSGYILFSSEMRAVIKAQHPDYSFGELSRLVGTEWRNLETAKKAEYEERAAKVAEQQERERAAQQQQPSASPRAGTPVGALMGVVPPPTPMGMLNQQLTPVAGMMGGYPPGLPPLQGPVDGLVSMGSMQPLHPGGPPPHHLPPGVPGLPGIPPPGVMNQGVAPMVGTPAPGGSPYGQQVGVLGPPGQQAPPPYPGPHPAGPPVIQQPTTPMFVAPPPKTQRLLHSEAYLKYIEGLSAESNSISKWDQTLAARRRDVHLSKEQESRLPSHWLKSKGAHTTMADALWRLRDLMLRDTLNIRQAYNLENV
T9 sequence (Q9ULD4 whole entry): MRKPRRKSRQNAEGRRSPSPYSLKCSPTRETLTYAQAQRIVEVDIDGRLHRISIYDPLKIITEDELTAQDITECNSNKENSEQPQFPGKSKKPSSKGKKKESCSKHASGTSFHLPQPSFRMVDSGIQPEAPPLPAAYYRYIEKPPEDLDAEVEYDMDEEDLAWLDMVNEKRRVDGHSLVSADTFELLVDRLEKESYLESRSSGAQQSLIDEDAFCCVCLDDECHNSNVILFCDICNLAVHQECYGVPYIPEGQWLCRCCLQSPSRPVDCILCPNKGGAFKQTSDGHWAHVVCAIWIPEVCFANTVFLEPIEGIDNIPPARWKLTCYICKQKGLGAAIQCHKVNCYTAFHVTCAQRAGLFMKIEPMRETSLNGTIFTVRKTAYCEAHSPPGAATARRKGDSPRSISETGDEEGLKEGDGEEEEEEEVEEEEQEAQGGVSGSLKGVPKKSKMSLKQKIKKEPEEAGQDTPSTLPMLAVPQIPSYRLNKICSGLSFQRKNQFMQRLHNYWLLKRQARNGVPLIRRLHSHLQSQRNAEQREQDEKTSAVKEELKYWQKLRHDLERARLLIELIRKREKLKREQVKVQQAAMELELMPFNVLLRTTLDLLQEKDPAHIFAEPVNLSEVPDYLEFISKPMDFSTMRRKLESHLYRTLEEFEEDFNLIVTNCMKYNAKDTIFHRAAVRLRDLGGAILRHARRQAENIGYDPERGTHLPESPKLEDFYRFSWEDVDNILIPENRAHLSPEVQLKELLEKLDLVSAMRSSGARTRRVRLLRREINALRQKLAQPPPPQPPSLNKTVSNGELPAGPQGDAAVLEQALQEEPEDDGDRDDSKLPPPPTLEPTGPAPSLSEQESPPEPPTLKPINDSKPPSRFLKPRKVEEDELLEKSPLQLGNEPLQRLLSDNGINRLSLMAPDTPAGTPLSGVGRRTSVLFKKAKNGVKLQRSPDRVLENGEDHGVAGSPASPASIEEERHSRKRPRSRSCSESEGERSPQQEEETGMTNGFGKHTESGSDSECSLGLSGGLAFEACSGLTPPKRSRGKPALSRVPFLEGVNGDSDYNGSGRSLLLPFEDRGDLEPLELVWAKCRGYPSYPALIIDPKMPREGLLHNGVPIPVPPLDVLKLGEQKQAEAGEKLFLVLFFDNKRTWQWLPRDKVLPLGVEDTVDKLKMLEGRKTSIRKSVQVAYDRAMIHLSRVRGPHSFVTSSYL

With `Cc1noc(C)c1-c1ccc2c(c1)[C@H](c1ccccc1)N(C)C2=O` [PNZ5], the ΔTm at 10 µM at BRD7 is 0.37 °C; at BRD4(2), 7.04 °C; on ATAD2B it was 0.3 °C; on SMARCA2, -0.18 °C; at BRDT(2), 8.81 °C; at PB1(5) it was 0.28 °C. Moreover, the ΔTm at 10 µM stood at 1.2 °C at BAZ1A; 1.03 °C at BRD1; 0.95 °C on BRPF3; 0.45 °C on PCAF; 0.12 °C on PB1(3); 0.81 °C on BRPF1A. Further, the ΔTm at 10 µM at CREBBP was found to be 2.37 °C; at TIF1-phd-bromo, 0.06 °C; on WDR9(2), 0.38 °C; on BAZ2B it was 0.38 °C; on SP140 it was 0.87 °C; on TAF1L(1), 0.31 °C. For the same compound, the ΔTm at 10 µM on PB1(1) came to 0.79 °C; at BRPF1B, 0.89 °C.
